The text below walks through data of ChEMBL document CHEMBL3608213, “Inhibitors of the Epidermal Growth Factor Receptor (EGFR) May Provide Effective Treatment for Lung Adenocarcinoma” (ACS Med Chem Lett, 2015).

pIC50: −log10 of the molar value.

Test [1] deals with Epidermal growth factor receptor (Homo sapiens, UniProt P00533, E746-A750DEL). Kind of test: Inhibition of EGFR E746-A750 deletion mutant in human PC9 cells assessed as inhibition of phosphorylation at Y1068 after 2 hrs by sandwich ELISA method. It counts as cell-based, PC-9. In general terms: In an ELISA, binding on a coated surface is turned into a signal by an enzyme label.
Chain of Epidermal growth factor receptor (Homo sapiens, UniProt P00533, E746-A750DEL) (P00533 whole entry E746-A750del, looked up): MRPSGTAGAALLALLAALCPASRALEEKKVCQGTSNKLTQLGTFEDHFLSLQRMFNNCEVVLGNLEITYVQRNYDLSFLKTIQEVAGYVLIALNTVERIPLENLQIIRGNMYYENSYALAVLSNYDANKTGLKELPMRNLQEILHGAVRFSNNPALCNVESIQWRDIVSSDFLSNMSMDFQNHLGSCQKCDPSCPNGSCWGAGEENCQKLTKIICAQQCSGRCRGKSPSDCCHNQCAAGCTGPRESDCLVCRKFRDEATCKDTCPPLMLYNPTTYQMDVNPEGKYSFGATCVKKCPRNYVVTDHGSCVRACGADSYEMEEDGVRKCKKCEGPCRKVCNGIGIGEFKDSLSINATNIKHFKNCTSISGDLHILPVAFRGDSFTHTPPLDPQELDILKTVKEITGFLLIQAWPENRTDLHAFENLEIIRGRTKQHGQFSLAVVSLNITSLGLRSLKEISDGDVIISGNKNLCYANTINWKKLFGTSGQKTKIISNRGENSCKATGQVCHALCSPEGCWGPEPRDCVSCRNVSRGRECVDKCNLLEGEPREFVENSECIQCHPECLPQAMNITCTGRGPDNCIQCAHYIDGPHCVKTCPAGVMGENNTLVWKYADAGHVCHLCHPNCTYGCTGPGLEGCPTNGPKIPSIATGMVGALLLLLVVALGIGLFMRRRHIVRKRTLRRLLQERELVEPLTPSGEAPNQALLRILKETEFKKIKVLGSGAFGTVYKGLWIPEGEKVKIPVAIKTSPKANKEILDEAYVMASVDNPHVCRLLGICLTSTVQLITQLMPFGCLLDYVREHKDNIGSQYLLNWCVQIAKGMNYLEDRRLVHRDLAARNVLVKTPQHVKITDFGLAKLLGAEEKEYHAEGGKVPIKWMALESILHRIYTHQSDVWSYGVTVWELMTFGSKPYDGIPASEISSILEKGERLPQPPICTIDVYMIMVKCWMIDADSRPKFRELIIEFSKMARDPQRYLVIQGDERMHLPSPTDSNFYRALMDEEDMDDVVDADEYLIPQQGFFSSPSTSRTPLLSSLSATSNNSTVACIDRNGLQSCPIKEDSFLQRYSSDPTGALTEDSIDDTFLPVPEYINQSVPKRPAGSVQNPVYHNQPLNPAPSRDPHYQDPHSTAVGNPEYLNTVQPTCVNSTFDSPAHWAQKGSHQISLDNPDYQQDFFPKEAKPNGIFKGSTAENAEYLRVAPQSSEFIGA

For test [2], the target named is T1, Epidermal growth factor receptor (Homo sapiens, UniProt P00533). Kind of test: Inhibition of EGFR deletion/T790M mutant in human PC9-DRH cells assessed as inhibition of phosphorylation at Y1068 after 2 hrs by sandwich ELISA method. It counts as cell-based.
Target sequence in this assay (P00533 25-1210 limits assumed, stated change not applied): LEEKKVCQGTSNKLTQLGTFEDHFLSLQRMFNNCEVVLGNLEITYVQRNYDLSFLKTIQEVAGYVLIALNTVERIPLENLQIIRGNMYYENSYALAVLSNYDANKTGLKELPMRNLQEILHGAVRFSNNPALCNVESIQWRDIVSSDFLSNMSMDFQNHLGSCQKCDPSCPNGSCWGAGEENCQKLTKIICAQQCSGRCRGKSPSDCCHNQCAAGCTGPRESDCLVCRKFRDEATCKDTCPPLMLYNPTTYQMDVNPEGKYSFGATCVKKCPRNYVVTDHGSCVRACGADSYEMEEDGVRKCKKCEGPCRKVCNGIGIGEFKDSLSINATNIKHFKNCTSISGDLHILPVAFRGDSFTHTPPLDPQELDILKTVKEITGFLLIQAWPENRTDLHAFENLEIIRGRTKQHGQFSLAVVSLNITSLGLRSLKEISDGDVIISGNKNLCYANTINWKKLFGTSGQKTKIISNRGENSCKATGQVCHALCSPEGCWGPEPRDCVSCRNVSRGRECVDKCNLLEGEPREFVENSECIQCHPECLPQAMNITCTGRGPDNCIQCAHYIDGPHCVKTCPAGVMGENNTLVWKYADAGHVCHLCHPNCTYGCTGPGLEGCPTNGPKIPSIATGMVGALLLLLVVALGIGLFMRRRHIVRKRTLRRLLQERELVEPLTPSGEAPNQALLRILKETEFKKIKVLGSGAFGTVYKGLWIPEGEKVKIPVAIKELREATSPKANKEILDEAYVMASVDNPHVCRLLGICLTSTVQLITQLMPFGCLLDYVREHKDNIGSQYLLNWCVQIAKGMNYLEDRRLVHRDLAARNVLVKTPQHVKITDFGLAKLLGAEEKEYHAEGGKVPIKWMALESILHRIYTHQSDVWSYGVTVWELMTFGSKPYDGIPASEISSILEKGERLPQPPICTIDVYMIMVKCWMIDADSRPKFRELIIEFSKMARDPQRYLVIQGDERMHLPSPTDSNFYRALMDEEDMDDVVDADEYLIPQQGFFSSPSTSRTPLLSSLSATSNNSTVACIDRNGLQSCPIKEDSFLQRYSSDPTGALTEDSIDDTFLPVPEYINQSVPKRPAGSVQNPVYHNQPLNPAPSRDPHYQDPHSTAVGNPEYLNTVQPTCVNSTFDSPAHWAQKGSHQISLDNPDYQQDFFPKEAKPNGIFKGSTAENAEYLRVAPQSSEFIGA
Test [3] addresses T1, Epidermal growth factor receptor. Nature of the test: Inhibition of wild type EGFR in human A549 cells assessed as inhibition of phosphorylation at Y1068 after 2 hrs by sandwich ELISA method. It counts as cell-based.
Target sequence in this assay (P00533 whole entry): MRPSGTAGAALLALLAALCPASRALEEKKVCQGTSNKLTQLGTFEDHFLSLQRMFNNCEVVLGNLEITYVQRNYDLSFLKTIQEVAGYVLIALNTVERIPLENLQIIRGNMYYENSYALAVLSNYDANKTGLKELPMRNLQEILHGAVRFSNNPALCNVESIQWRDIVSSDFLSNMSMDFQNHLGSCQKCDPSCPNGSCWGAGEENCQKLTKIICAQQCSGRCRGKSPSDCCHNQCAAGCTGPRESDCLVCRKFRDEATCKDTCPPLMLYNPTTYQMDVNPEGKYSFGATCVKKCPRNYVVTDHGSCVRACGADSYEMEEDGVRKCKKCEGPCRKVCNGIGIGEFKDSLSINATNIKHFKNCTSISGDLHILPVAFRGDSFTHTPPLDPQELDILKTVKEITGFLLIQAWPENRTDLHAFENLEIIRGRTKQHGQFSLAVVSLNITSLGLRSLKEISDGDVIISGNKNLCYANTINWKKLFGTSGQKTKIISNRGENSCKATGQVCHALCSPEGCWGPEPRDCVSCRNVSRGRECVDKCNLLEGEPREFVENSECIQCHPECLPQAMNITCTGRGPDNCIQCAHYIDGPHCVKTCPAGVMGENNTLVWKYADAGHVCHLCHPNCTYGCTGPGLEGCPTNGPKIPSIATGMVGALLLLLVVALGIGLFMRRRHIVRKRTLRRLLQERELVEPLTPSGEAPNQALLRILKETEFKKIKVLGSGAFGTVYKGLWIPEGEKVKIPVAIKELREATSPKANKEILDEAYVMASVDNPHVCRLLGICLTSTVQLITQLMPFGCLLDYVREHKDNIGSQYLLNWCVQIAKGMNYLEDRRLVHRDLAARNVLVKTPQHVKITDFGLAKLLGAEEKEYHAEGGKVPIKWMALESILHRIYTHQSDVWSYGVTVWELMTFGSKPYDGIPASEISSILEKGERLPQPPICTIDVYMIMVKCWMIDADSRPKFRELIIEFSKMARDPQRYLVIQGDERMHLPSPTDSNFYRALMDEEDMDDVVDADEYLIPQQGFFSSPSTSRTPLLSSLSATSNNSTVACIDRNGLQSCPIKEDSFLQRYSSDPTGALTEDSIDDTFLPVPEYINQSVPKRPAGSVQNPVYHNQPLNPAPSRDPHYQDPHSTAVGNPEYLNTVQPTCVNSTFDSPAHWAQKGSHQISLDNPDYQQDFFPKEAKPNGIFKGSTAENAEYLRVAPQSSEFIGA

As to `C=CC(=O)N[C@H]1CCN(c2nc(Nc3ccc(N4CCN(C)CC4)cc3)c3ncn(CCO)c3n2)C1`, in test [1], the pIC50 is 7.51.
For `C=CC(=O)N[C@@H]1CN(c2nc(Nc3cn(CC)nc3OC)c3ncn(C)c3n2)C[C@H]1F`, the figures for the pIC50 in test [1] and in test [2] were 8.22 and 9.00, respectively.
Regarding `C=CC(=O)N[C@@H]1CN(c2nc(Nc3cn(C)nc3C)c3ncn(C(C)C)c3n2)C[C@H]1F`, the pIC50 is 5.18 in test [1], 5.00 in test [3] and 5.67 in test [2].
For `C=CC(=O)N1C[C@@H]2CN(c3nc(Nc4ccc(N5CCN(C)CC5)cc4)c4ncn(C(C)C)c4n3)C[C@@H]2C1`, the negative-log IC50 (pIC50) in test [1] is 8.10; in test [2] it was 7.74.

As usually defined, the pIC50 is the negative decadic logarithm of the IC50, by convention in mol/L.
